Laboratory results published in patent US4080471A, “Use of substituted isopropylaminopropanols for inducing inotropic effects of the human heart” (priority 1976, dated 1978).
“Also recorded” adds a separate entry of the source.

What was measured:
[1] = system: heart; assay: Ventricular arrhythmia in dogs after two-stage ligation of the left anterior coronary artery (third day post infarction); type: in vivo, dog
Procedure: Harris, A. S. Delayed Development of Ventricular Ectopic Rhythms following Coronary Occlusion, Cir. l, p 1318, (1950) described a method of two-stage ligation of the left anterior coronary artery in the dog. This method produces a multifocal ventricular arrhythmia that generally remains persistent on the first post ligation day (day 1-24 hours post infarct). The arrhythmia slowly disappears, and by the third post-ligation day the animal has essentially a normal sinus rhythm.
Maling, H. M. and Moran, N. C., Ventricular Arrhythmias Induced by Sympathominetic Amines in Unanesthetized Dogs Following Coronary Artery Occlussion, Cir.
METHODS, MATERIALS AND EXPERIMENTAL DESIGN
Seventeen adult female beagle dogs were used. Their ages ranged from one to three years. These animals were divided into two groups.
The first group consisted of 12 dogs and served as a control group. All animals were subjected to a two-stage ligation of the left anterior coronary artery. On the first post operative day these twelve animals were given various experimental antiarrhythmic agents as part of a routine testing procedure. It should be noted that, due to the nature of these agents, there would be no test drug or only trace amounts of test drug in the blood on day 3, and these amounts would cause little or no change on the outcome of a third day test. It should also be noted that all twelve of these animals has at least 85% ventricular ectopic beats on the morning after surgery in order to be accepted for testing.
On the third day post infarction the dogs were suspended in a standing position in a canvas sling. No anesthesia or sedation was used. ECGs were recorded as well as blood pressure. After a control period, an infusion of 20 μg/kg min. of 1-norepinephrine was begun using a Harvard infusion/withdrawal pump. This infusion lasted 120 minutes.
These five animals were all subjected to a two stage ligation of the anterior descending coronary artery. On day 1 and day 2 each dog was suspended in a canvas sling in the standing position and ECG, blood pressure, and other physiologic measurements were taken. […]

[2] = biological target: T1, beta-receptors of the heart (Felis catus, UniProt Q9TST6); assay: Heart frequency increase before and after beta-blockade with Inderal; type: in vivo, cat; settings: 0.01 mg/kg bodyweight i.v.
T1 construct: Heart frequency was registered with a cardiotachometer triggered by the ECG; from tissue; host or cells: heart of the anaesthetized cat in vivo (reserpine-pretreated, vagotomized)
Procedure: (§1) When the cats had been anaesthetized with Mebumal® 30 mg/kg bodyweight i.p., an artificial air respiration was started. The two vagus nerves were cut and the blood passing through a femoral artery was fed via a catheter and a pump back to the distal part of the vessel. Parallelly, a pressure transducer was connected by which the perfusion pressure was registered. At a perfusion with a constant flow, the perfusion pressure is directly proportional to the peripheral resistance of the vascular bed of the hind limb. Blood circulation in the foot was interrupted with a ligature. Heart frequency was registered with a cardiotachometer triggered by the ECG. The substances were administered intravenously in increasing doses and the dose-response curves of the heart frequency and the vasodilatation were constructed.

[3] = system: heart; assay: Repetitive ventricular response (RVR) / spontaneous arrhythmia in the anesthetized dog; type: in vivo
Excerpt: (§2) Effects of Compound I and Ouabain On the Heart Contractility and Rhythmicity of the Anesthetized Dog
(§3) The object of the test was to compare compound I and oubain administered alone and in combination with each other to study the inotropic effect (maximum dP/dt in the left ventricle) and a possibly arrhythmic effect. The latter included an investigation of the ability of the compounds to cause repetitive ventricular response (RVR) when the heart was electrically stimulated via an electrode on the ventricle at the electrically vulnerable phase at the end of the T-wave. Klein et al. (M. Klein, N. S. Nejad, B. Lown, F. Hagemeijer and I. Blair, Circulation Research, 29, 635 (1971)) have shown that digitalis caused RVR at a dose which was about 70% of the dose giving spontaneous ventricular arrhythmias.
(§4) The dog was anesthetized with Mebumal® 30 mg/kg bodyweight i.v. Artificial respiration was applied. The sinus-node was electrocoagulated and the heart frequency was kept constant at 180 beats/minute in each test by electrical pacing of the auricle. Mean arterial blood pressure was registered from the carotis artery. ECG was registered during the test. Further, the pressure in the left ventricle was registered via a catheter inserted through the apex and connected to a pressure transducer. The intraventricular pressure curve was derivated to obtain maximum dP/dt which is a measure of the contractile force of the heart.
(§5) The test was started with a series of control registrations, whereupon the compounds were administered 3 times by infusion during five minutes and with an interval of 50 minutes between each infusion.
(§6) In the experiment with compound I only, the compound was administered in two doses of 10 μg/kg bodyweight and then one dose of 20 μg/kg bodyweight. Ouabain was given in 3 consecutive doses of 20 μg/kg bodyweight. In the combination test ouabain was first given in a dose of 20 μg/kg bodyweight followed by two doses of compound I of 10 and 20 μg/kg bodyweight, respectively.

[4] = system: heart; assay: Effect on heart contractility (maximum dP/dt) of the anesthetized dog; type: in vivo
Excerpt: as §2, §3, §4, §5, §6

[5] = biological target: T2, beta-receptors of the blood vessels (Felis catus, UniProt Q9TST5); assay: Vasodilatating effect (hind limb perfusion pressure) on anesthetized cat pretreated with reserpine; type: in vivo; settings: cat, iv, read-out: ED50 Vasodilation
T2 construct: from tissue; host or cells: hind-limb vascular bed of the anaesthetized cat in vivo (constant-flow perfusion, reserpine-pretreated)
Procedure: (§7) Chronotropic (heart frequency) and vasodilatating effects:
as §1
(§8) Further, the dose ratios (ED50 for vasodilatation/ED50 for heart frequency) are calculated. A dose ratio >1 indicates a heart selective effect.

[6] = biological target: T1, beta-receptors of the heart; assay: Beta-adrenergic (chronotropic, heart frequency) effects on anesthetized cat pretreated with reserpine; type: in vivo
Procedure: as §7, §1, §8

[7] = system: beta-receptors of the heart; assay: as above; type: in vivo; settings: dose ratio >1 indicates a heart selective effect
Procedure: as §7, §1, §8

[8] = 20 minutes after administration, ouabain versus compound I
[9] = anesthetized dog, i.v. infusion

T1 sequence (Q9TST6 whole entry): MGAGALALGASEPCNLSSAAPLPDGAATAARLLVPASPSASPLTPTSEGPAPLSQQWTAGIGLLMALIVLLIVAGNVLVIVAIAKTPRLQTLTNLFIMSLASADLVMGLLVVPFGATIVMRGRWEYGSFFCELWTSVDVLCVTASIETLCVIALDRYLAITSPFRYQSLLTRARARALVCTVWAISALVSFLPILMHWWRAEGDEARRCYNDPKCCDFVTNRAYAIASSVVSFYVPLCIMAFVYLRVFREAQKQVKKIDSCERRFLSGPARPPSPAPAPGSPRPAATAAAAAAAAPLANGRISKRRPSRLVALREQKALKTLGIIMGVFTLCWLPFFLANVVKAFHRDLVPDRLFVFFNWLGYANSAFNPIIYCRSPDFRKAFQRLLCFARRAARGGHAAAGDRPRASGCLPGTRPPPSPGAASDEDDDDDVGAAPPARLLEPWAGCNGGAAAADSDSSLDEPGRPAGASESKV
T2 sequence (Q9TST5 whole entry, the tested form may be a part): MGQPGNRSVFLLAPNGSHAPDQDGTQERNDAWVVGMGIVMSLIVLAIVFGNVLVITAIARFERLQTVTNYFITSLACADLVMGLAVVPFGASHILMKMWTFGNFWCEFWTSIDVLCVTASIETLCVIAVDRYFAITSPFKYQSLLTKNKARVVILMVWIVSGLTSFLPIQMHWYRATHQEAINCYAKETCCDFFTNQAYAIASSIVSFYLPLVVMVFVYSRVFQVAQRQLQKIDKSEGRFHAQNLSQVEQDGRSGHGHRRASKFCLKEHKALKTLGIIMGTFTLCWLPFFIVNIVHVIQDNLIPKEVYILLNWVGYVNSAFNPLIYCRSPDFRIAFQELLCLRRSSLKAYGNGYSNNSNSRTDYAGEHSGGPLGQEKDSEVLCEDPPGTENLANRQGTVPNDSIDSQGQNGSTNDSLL

**Q.** Which results are given for CC(C)NCC(O)COc1ccc(O)cc1 (centres unmarked) [Compound I, 1-isopropylamino-3-(p-hydroxyphenoxy)-propanol-2]?
**A.** ectopic activity in postdrug observation period ([1]; 60 minutes after compound I infusion): essentially no ectopic activity; arrhythmogenic effect (in words) ([1]; compound I 1.0 mg/kg/min i.v. for twenty minutes, day 3 post infarct): not arrhythmogenic; also recorded: the few ectopic beats seen during the predrug control were slightly suppressed; also recorded: lacks arrhythmogenic properties; increase of heart frequency, given after Inderal ([2]; after 0.2 mg/kg i.v. Inderal): 10 beats/minute; increase of heart frequency, given before Inderal ([2]; before Inderal, average): 60 beats/minute; RVR or spontaneous arrhythmia (in words) ([3]; compound I 10 and 20 μg/kg bodyweight): did not in any case cause RVR or spontaneous arrhythmia; arrhythmogenic effect in relation to inotropic effect, versus ouabain (in words) ([3]; dog, in vivo): evidently less arrhythmogenic effect than ouabain; increase of aortic blood pressure ([4]; 20 minutes after administration): no effect; doses giving approximately the same level of maximum dP/dt (lower pair) [4, 8]: about 10 μg/kg bodyweight; doses giving corresponding effect on maximum dP/dt (higher pair) [4, 8]: 20 μg/kg bodyweight; effect on maximum dP/dt (in words) [4, 9]: increased the maximum dP/dt; onset of effect on maximum dP/dt [4, 9]: immediate; reduction of effect on maximum dP/dt after 50 minutes [4, 9]: almost completely reduced after 50 minutes; ventricular contractility compared with ouabain (in words) ([4]; at same increase of maximum dP/dt): increased the ventricular contractility a little more than ouabain; ED50 [5]: > 1000 µg/kg; ED50 ([6]; cat, iv, read-out: ED50 Heart Frequency): 6 µg/kg; potency relative to isoprenaline, chronotropic effect ([6]; isoprenaline = 1, cat i.v.): about 1/100; Selectivity: ED50 Vasodilatation / ED50 Heart Frequency [7]: > 100
